Holding throughout (type): cell-based
Assay [1] has as its target 5'-AMP-activated protein kinase catalytic subunit alpha-2 (Rattus norvegicus) (UniProt Q09137). Description: Activation of AMPK in rat IAR-20 cells assessed as phosphorylated protein level at 10 uM after 30 mins by Western blot analysis.
For assay [2] the target is unchanged. The experiment in a line: Activation of AMPK in rat IAR-20 cells assessed as phosphorylated acetyl CoA carboxylase level at 10 uM after 30 mins by Western blot analysis.
The target is the same in assay [3]. The experiment in a line: Inhibition of AMPK in rat IAR-20 cells assessed as phosphorylated protein level at 10 uM after 30 mins by Western blot analysis.
For assay [4] the target is unchanged. Description: Inhibition of AMPK in rat IAR-20 cells assessed as phosphorylated acetyl CoA carboxylase level at 10 uM after 30 mins by Western blot analysis.

The source made the active and inactive calls. The rule behind the calls is not given here.

Sequence of 5'-AMP-activated protein kinase catalytic subunit alpha-2 (Rattus norvegicus) (Q09137 whole entry): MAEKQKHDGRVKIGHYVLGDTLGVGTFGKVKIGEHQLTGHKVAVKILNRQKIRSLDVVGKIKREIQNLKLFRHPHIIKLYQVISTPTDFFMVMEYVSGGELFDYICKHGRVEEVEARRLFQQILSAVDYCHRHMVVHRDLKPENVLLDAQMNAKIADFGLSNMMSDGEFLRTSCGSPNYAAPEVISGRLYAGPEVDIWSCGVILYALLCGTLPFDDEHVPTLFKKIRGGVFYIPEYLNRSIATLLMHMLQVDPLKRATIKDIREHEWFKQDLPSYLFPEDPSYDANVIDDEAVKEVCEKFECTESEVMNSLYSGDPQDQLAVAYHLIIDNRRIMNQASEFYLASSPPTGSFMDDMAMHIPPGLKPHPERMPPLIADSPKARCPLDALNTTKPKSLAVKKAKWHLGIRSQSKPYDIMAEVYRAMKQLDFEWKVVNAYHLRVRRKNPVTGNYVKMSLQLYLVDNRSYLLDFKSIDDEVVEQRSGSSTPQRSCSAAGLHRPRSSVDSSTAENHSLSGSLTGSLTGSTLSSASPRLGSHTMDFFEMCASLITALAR

Regarding `COc1cc(O)c(C)c(O)c1C(=O)CCc1ccc(O)cc1`, the outcome in assay [1] and in assay [2] was Active.

With `Cc1c(O)c(C)c2c(c1O)C(=O)[C@](O)(Cc1ccc(O)cc1)CO2`, the inhibition result in assay [3] and in assay [4] was “Active” throughout.

For the compound `Cc1c(O)cc2c(c1O)C(=O)[C@H](Cc1ccc(O)cc1)CO2`, the result in assay [1] and in assay [2] was Active.

Turning to `COc1c(O)c(C)c(O)c2c1OC[C@@](O)(Cc1ccc(O)cc1)C2=O`, the inhibition entry in assay [3] and in assay [4] was “Active” each time.

For `COc1c(O)c(C)c(O)c2c1OC[C@@H](Cc1ccc(O)cc1)C2=O`, the outcome in assay [1] and in assay [2] was Active.

As to `COc1ccc(CC2COc3c(OC)c(O)cc(O)c3C2=O)c(O)c1` (centres undefined), the inhibition result in assay [3] and in assay [4] was “Active” each time.

In the case of `Cc1c(O)c(C)c2c(c1O)C(=O)[C@H](Cc1ccc(O)cc1)CO2`, the result in assay [1] and in assay [2] was Active.

(Values after ChEMBL document CHEMBL2385060, “A dihydrochalcone and several homoisoflavonoids from Polygonatum odoratum are activators of adenosine monophosphate-activated protein kinase” (Bioorg Med Chem Lett, 2013).)
